Laboratory results: the supplement of paper PMC9663587

Experiments:
Assay in all cases: GR value, 72 h; higher = faster growth (1 = untreated, <0 = killing);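 also: breast cancer and non-malignant breast epithelial lines, nine half-log doses, viable cells counted by Hoechst and LIVE/DEAD dye imaging versus time-zero plates and DMSO controls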
Ipatasertib/GDC0068 = compound: CC(C)NC[C@@H](C(=O)N1CCN(c2ncnc3c2[C@H](C)C[C@H]3O)CC1)c1ccc(Cl)cc1 [Ipatasertib/GDC0068]
FMF-03-146-1 = compound: CN1CCN(CC1)C2=CC(=C(C=C2)NC3=NC=C4C(=N3)N(C5=CC=CC=C5C(=O)N4CC(F)(F)F)C)OC [FMF-03-146-1]
Saracatinib/AZD0530 = compound: CN1CCN(CCOc2cc(OC3CCOCC3)c3c(Nc4c(Cl)ccc5c4OCO5)ncnc3c2)CC1 [Saracatinib/AZD0530]
Doxorubicin = compound: COc1cccc2c1C(=O)c1c(O)c3c(c(O)c1C2=O)C[C@@](O)(C(=O)CO)C[C@@H]3O[C@H]1C[C@H](N)[C@H](O)[C@H](C)O1 [Doxorubicin]
[1] = compound: CCC1=CN=CN=C1N2CCN(CC2)CC3=NC4=C(N3)C=C(C=C4)C(F)(F)F
Everolimus = compound: CO[C@H]1C[C@@H]2CC[C@@H](C)[C@@](O)(O2)C(=O)C(=O)N2CCCC[C@H]2C(=O)O[C@H]([C@H](C)C[C@@H]2CC[C@@H](OCCO)[C@H](OC)C2)CC(=O)[C@H](C)/C=C(\C)[C@@H](O)[C@@H](OC)C(=O)[C@H](C)C[C@H](C)/C=C/C=C/C=C/1C [Everolimus]
[2] = compound: CCCCOc1c(C(=O)c2c(F)cc(C)cc2F)c[nH]c2nncc1-2
INK128/MLN0128 = compound: CC(C)n1nc(-c2ccc3oc(N)nc3c2)c2c(N)ncnc21 [INK128/MLN0128]
Paclitaxel = compound: CC(=O)O[C@H]1C(=O)[C@@]2(C)[C@H]([C@H](OC(=O)c3ccccc3)[C@]3(O)C[C@H](OC(=O)[C@H](O)[C@@H](NC(=O)c4ccccc4)c4ccccc4)C(C)=C1C3(C)C)[C@]1(OC(C)=O)CO[C@@H]1C[C@@H]2O [Paclitaxel]
Cediranib/AZD2171 = compound: COc1cc2c(Oc3ccc4[nH]c(C)cc4c3F)ncnc2cc1OCCCN1CCCC1 [Cediranib/AZD2171]

**Q.** What does the source list for AU565?
**A.** GR value (Ipatasertib/GDC0068; 0.001 µM): 1.03 GR; GR value (Ipatasertib/GDC0068; 0.003162 µM): 1.08 GR; GR value (Ipatasertib/GDC0068; 0.01 µM): 1.03 GR; GR value (Ipatasertib/GDC0068; 0.03162 µM): 0.996 GR; GR value (Ipatasertib/GDC0068; 0.1 µM): 0.976 GR; GR value (Ipatasertib/GDC0068; 0.3162 µM): 0.809 GR; GR value (Ipatasertib/GDC0068; 1 µM): 0.772 GR; GR value (Ipatasertib/GDC0068; 3.162 µM): 0.55 GR; GR value (Ipatasertib/GDC0068; 10 µM): 0.289 GR; GR value (FMF-03-146-1; 0.001 µM): 0.955 GR; GR value (FMF-03-146-1; 0.003162 µM): 1.02 GR; GR value (FMF-03-146-1; 0.01 µM): 1.03 GR; GR value (FMF-03-146-1; 0.03162 µM): 1 GR; GR value (FMF-03-146-1; 0.1 µM): 0.928 GR; GR value (FMF-03-146-1; 0.3162 µM): 0.924 GR; GR value (FMF-03-146-1; 1 µM): 0.874 GR; GR value (FMF-03-146-1; 3.162 µM): 0.894 GR; GR value (FMF-03-146-1; 10 µM): 0.695 GR; GR value (Saracatinib/AZD0530; 0.001 µM): 1 GR; GR value (Saracatinib/AZD0530; 0.003162 µM): 1.03 GR; GR value (Saracatinib/AZD0530; 0.01 µM): 0.984 GR; GR value (Saracatinib/AZD0530; 0.03162 µM): 1.03 GR; GR value (Saracatinib/AZD0530; 0.1 µM): 0.952 GR; GR value (Saracatinib/AZD0530; 0.3162 µM): 0.942 GR; GR value (Saracatinib/AZD0530; 1 µM): 0.86 GR; GR value (Saracatinib/AZD0530; 3.162 µM): 0.671 GR; GR value (Saracatinib/AZD0530; 10 µM): 0.162 GR; GR value (Doxorubicin; 0.0003162 µM): 1.09 GR; GR value (Doxorubicin; 0.001 µM): 1.03 GR; GR value (Doxorubicin; 0.003162 µM): 1.05 GR; GR value (Doxorubicin; 0.01 µM): 1.01 GR; GR value (Doxorubicin; 0.03162 µM): 0.553 GR; GR value (Doxorubicin; 0.1 µM): -0.11 GR; GR value (Doxorubicin; 0.3162 µM): -0.234 GR; GR value (Doxorubicin; 1 µM): -0.385 GR; GR value (Doxorubicin; 3.162 µM): -0.452 GR; GR value ([1]; 0.001 µM): 1.03 GR; GR value ([1]; 0.003162 µM): 1.08 GR; GR value ([1]; 0.01 µM): 1.01 GR; GR value ([1]; 0.03162 µM): 1.09 GR; GR value ([1]; 0.1 µM): 0.997 GR; GR value ([1]; 0.3162 µM): 0.985 GR; GR value ([1]; 1 µM): 0.932 GR; GR value ([1]; 3.162 µM): 0.808 GR; GR value ([1]; 10 µM): 0.486 GR; GR value (Everolimus; 0.001 µM): 0.523 GR; GR value (Everolimus; 0.003162 µM): 0.451 GR; GR value (Everolimus; 0.01 µM): 0.429 GR; GR value (Everolimus; 0.03162 µM): 0.494 GR; GR value (Everolimus; 0.1 µM): 0.396 GR; GR value (Everolimus; 0.3162 µM): 0.509 GR; GR value (Everolimus; 1 µM): 0.408 GR; GR value (Everolimus; 3.162 µM): 0.454 GR; GR value (Everolimus; 10 µM): 0.398 GR; GR value ([2]; 0.001 µM): 0.763 GR; GR value ([2]; 0.003162 µM): 0.828 GR; GR value ([2]; 0.01 µM): 0.656 GR; GR value ([2]; 0.03162 µM): 0.622 GR; GR value ([2]; 0.1 µM): 0.545 GR; GR value ([2]; 0.3162 µM): 0.489 GR; GR value ([2]; 1 µM): 0.372 GR; GR value ([2]; 3.162 µM): 0.0322 GR; GR value ([2]; 10 µM): -0.151 GR; GR value (INK128/MLN0128; 0.0003162 µM): 0.889 GR; GR value (INK128/MLN0128; 0.001 µM): 0.931 GR; GR value (INK128/MLN0128; 0.003162 µM): 0.62 GR; GR value (INK128/MLN0128; 0.01 µM): 0.249 GR; GR value (INK128/MLN0128; 0.03162 µM): 0.0411 GR; GR value (INK128/MLN0128; 0.1 µM): -0.0783 GR; GR value (INK128/MLN0128; 0.3162 µM): -0.0838 GR; GR value (INK128/MLN0128; 1 µM): -0.184 GR; GR value (INK128/MLN0128; 3.162 µM): -0.48 GR; GR value (Paclitaxel; 0.0001 µM): 1.05 GR; GR value (Paclitaxel; 0.0003162 µM): 1.1 GR; GR value (Paclitaxel; 0.001 µM): 0.919 GR; GR value (Paclitaxel; 0.003162 µM): -0.244 GR; GR value (Paclitaxel; 0.01 µM): -0.459 GR; GR value (Paclitaxel; 0.03162 µM): -0.515 GR; GR value (Paclitaxel; 0.1 µM): -0.482 GR; GR value (Paclitaxel; 0.3162 µM): -0.467 GR; GR value (Paclitaxel; 1 µM): -0.475 GR; GR value (Cediranib/AZD2171; 0.001 µM): 1.04 GR; GR value (Cediranib/AZD2171; 0.003162 µM): 0.989 GR; GR value (Cediranib/AZD2171; 0.01 µM): 1.07 GR; GR value (Cediranib/AZD2171; 0.03162 µM): 1.07 GR; GR value (Cediranib/AZD2171; 0.1 µM): 1.06 GR; GR value (Cediranib/AZD2171; 0.3162 µM): 1.22 GR; GR value (Cediranib/AZD2171; 1 µM): 1.2 GR; GR value (Cediranib/AZD2171; 3.162 µM): 1.08 GR; GR value (Cediranib/AZD2171; 10 µM): 0.941 GR
